Tested on: 354836-022-R-J1-PDC multicell spheroid viability
Assay: Anticancer human tumor 354836-022-R-J1-PDC patient-derived head and neck squamous cell carcinoma cell line growth inhibition [PI3K]
Conditions: for IC50: curve of first compound; for viability, T/C: stronger effect = lower value
Method in brief: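 Spheroid viability read-out. Co-cultures contained the tumor line plus HUVEC and human MSCs. Each agent was paired with a PI3K inhibitor (inavolisib, alpelisib, duvelisib, copanlisib) across half-log dilutions starting at clinical Cmax, or at 10 microM when Cmax was unknown.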

[1] = second compound 0.0316 µM, first compound 0.0316 µM
[2] = second compound 0.0316 µM, first compound 0.1 µM
[3] = second compound 0.0316 µM, first compound 0.316 µM
[4] = second compound 0.0316 µM, first compound 1 µM
[5] = second compound 0.0316 µM, first compound 3.16 µM
[6] = second compound 0.0316 µM, first compound 10 µM
[7] = second compound 0.1 µM, first compound 0.0316 µM
[8] = second compound 0.1 µM, first compound 0.1 µM
[9] = second compound 0.1 µM, first compound 0.316 µM
[10] = second compound 0.1 µM, first compound 1 µM
[11] = second compound 0.1 µM, first compound 3.16 µM
[12] = second compound 0.1 µM, first compound 10 µM
[13] = second compound 0.316 µM, first compound 0.0316 µM
[14] = second compound 0.316 µM, first compound 0.1 µM
[15] = second compound 0.316 µM, first compound 0.316 µM
[16] = second compound 0.316 µM, first compound 1 µM
[17] = second compound 0.316 µM, first compound 3.16 µM
[18] = second compound 0.316 µM, first compound 10 µM
[19] = second compound 1 µM, first compound 0.0316 µM
[20] = second compound 1 µM, first compound 0.1 µM
[21] = second compound 1 µM, first compound 0.316 µM
[22] = second compound 1 µM, first compound 1 µM
[23] = second compound 1 µM, first compound 3.16 µM
[24] = second compound 1 µM, first compound 10 µM
[25] = second compound 3.16 µM, first compound 0.0316 µM
[26] = second compound 3.16 µM, first compound 0.1 µM
[27] = second compound 3.16 µM, first compound 0.316 µM
[28] = second compound 3.16 µM, first compound 1 µM
[29] = second compound 3.16 µM, first compound 3.16 µM
[30] = second compound 3.16 µM, first compound 10 µM
[31] = second compound 10 µM, first compound 0.0316 µM
[32] = second compound 10 µM, first compound 0.1 µM
[33] = second compound 10 µM, first compound 0.316 µM
[34] = second compound 10 µM, first compound 1 µM
[35] = second compound 10 µM, first compound 3.16 µM
[36] = second compound 10 µM, first compound 10 µM
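Also: spheroids exposed to agents for seven days before the viability read.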

SMILES: C=CC(=O)N1CCN(c2nc(=O)n(-c3c(C)ccnc3C(C)C)c3nc(-c4c(O)cccc4F)c(F)cc23)C(C)C1 (stereo not drawn) + CC(Nc1ncnc2nc[nH]c12)c1cc2cccc(Cl)c2c(=O)n1-c1ccccc1
- IC50 (second compound 0.0316 µM): > 10000 nM
- IC50 (second compound 0.1 µM): > 10000 nM
- IC50 (second compound 0.316 µM): > 10000 nM
- IC50 (second compound 1 µM): > 10000 nM
- IC50 (second compound 3.16 µM): > 10000 nM
- IC50 (second compound 10 µM): > 10000 nM
- viability, T/C [1]: 93.1%
- viability, T/C [2]: 84.5%
- viability, T/C [3]: 103%
- viability, T/C [4]: 103%
- viability, T/C [5]: 98.7%
- viability, T/C [6]: 94.1%
- viability, T/C [7]: 98.7%
- viability, T/C [8]: 94.5%
- viability, T/C [9]: 96.4%
- viability, T/C [10]: 115%
- viability, T/C [11]: 108%
- viability, T/C [12]: 95.5%
- viability, T/C [13]: 110%
- viability, T/C [14]: 106%
- viability, T/C [15]: 103%
- viability, T/C [16]: 116%
- viability, T/C [17]: 106%
- viability, T/C [18]: 88.1%
- viability, T/C [19]: 103%
- viability, T/C [20]: 98.4%
- viability, T/C [21]: 108%
- viability, T/C [22]: 102%
- viability, T/C [23]: 98.7%
- viability, T/C [24]: 97.7%
- viability, T/C [25]: 96%
- viability, T/C [26]: 114%
- viability, T/C [27]: 106%
- viability, T/C [28]: 115%
- viability, T/C [29]: 115%
- viability, T/C [30]: 93.2%
- viability, T/C [31]: 98%
- viability, T/C [32]: 89.4%
- viability, T/C [33]: 90.1%
- viability, T/C [34]: 99.2%
- viability, T/C [35]: 102%
- viability, T/C [36]: 88.1%

SMILES: CCN1CCN(Cc2ccc(Nc3ncc(F)c(-c4cc(F)c5nc(C)n(C(C)C)c5c4)n3)nc2)CC1 + CC(Nc1ncnc2nc[nH]c12)c1cc2cccc(Cl)c2c(=O)n1-c1ccccc1
- IC50 (second compound 0.0316 µM): 917 nM
- IC50 (second compound 0.1 µM): > 1000 nM
- IC50 (second compound 0.316 µM): > 1000 nM
- IC50 (second compound 1 µM): 954 nM
- IC50 (second compound 3.16 µM): 788 nM
- IC50 (second compound 10 µM): 643 nM
- viability, T/C (second compound 0.0316 µM, first compound 0.00316 µM): 109%
- viability, T/C (second compound 0.0316 µM, first compound 0.01 µM): 103%
- viability, T/C [1]: 97.6%
- viability, T/C [2]: 96.7%
- viability, T/C [3]: 81.7%
- viability, T/C [4]: 47.3%
- viability, T/C (second compound 0.1 µM, first compound 0.00316 µM): 106%
- viability, T/C (second compound 0.1 µM, first compound 0.01 µM): 109%
- viability, T/C [7]: 91.7%
- viability, T/C [8]: 103%
- viability, T/C [9]: 99.5%
- viability, T/C [10]: 61.2%
- viability, T/C (second compound 0.316 µM, first compound 0.00316 µM): 103%
- viability, T/C (second compound 0.316 µM, first compound 0.01 µM): 102%
- viability, T/C [13]: 102%
- viability, T/C [14]: 104%
- viability, T/C [15]: 89.4%
- viability, T/C [16]: 58.1%
- viability, T/C (second compound 1 µM, first compound 0.00316 µM): 119%
- viability, T/C (second compound 1 µM, first compound 0.01 µM): 104%
- viability, T/C [19]: 94.9%
- viability, T/C [20]: 109%
- viability, T/C [21]: 91.6%
- viability, T/C [22]: 47.8%
- viability, T/C (second compound 3.16 µM, first compound 0.00316 µM): 97.9%
- viability, T/C (second compound 3.16 µM, first compound 0.01 µM): 110%
- viability, T/C [25]: 94.2%
- viability, T/C [26]: 100%
- viability, T/C [27]: 93.7%
- viability, T/C [28]: 38.5%
- viability, T/C (second compound 10 µM, first compound 0.00316 µM): 92.5%
- viability, T/C (second compound 10 µM, first compound 0.01 µM): 92.8%
- viability, T/C [31]: 90.1%
- viability, T/C [32]: 86.4%
- viability, T/C [33]: 83.8%
- viability, T/C [34]: 29.6%

SMILES: Cn1ncc(Cl)c1-c1cc(C(=O)NC(CN)Cc2cccc(F)c2)sc1Cl (stereo not drawn) + CC(Nc1ncnc2nc[nH]c12)c1cc2cccc(Cl)c2c(=O)n1-c1ccccc1
- IC50 (second compound 0.0316 µM): 100 nM
- IC50 (second compound 0.1 µM): 168 nM
- IC50 (second compound 0.316 µM): 112 nM
- IC50 (second compound 1 µM): 162 nM
- IC50 (second compound 3.16 µM): 215 nM
- IC50 (second compound 10 µM): 145 nM
- viability, T/C [1]: 74.6%
- viability, T/C [2]: 48.9%
- viability, T/C [3]: 31.8%
- viability, T/C [4]: 15.1%
- viability, T/C [5]: 5.4%
- viability, T/C [6]: 1.88%
- viability, T/C [7]: 70.7%
- viability, T/C [8]: 61.4%
- viability, T/C [9]: 36.3%
- viability, T/C [10]: 17.7%
- viability, T/C [11]: 5.21%
- viability, T/C [12]: 1.62%
- viability, T/C [13]: 74.1%
- viability, T/C [14]: 52.5%
- viability, T/C [15]: 30.3%
- viability, T/C [16]: 17.8%
- viability, T/C [17]: 5.75%
- viability, T/C [18]: 1.5%
- viability, T/C [19]: 65.6%
- viability, T/C [20]: 67%
- viability, T/C [21]: 29.6%
- viability, T/C [22]: 19.3%
- viability, T/C [23]: 5.53%
- viability, T/C [24]: 1.8%
- viability, T/C [25]: 75.6%
- viability, T/C [26]: 68.1%
- viability, T/C [27]: 39.5%
- viability, T/C [28]: 20.9%
- viability, T/C [29]: 7.18%
- viability, T/C [30]: 2.1%
- viability, T/C [31]: 70.8%
- viability, T/C [32]: 59.7%
- viability, T/C [33]: 31.8%
- viability, T/C [34]: 18.9%
- viability, T/C [35]: 8.1%
- viability, T/C [36]: 2.22%

SMILES: Cn1nccc1Nc1nccc(-c2ccn(C(CO)c3ccc(Cl)c(F)c3)c(=O)c2)n1 (stereo not drawn) + CC(Nc1ncnc2nc[nH]c12)c1cc2cccc(Cl)c2c(=O)n1-c1ccccc1
- IC50 (second compound 0.0316 µM): > 10000 nM
- IC50 (second compound 0.1 µM): > 10000 nM
- IC50 (second compound 0.316 µM): > 10000 nM
- IC50 (second compound 1 µM): > 10000 nM
- IC50 (second compound 3.16 µM): > 10000 nM
- IC50 (second compound 10 µM): > 10000 nM
- viability, T/C [1]: 107%
- viability, T/C [2]: 107%
- viability, T/C [3]: 103%
- viability, T/C [4]: 94.9%
- viability, T/C [5]: 89.3%
- viability, T/C [6]: 90.5%
- viability, T/C [7]: 108%
- viability, T/C [8]: 110%
- viability, T/C [9]: 94.3%
- viability, T/C [10]: 104%
- viability, T/C [11]: 91.2%
- viability, T/C [12]: 96.4%
- viability, T/C [13]: 113%
- viability, T/C [14]: 93.5%
- viability, T/C [15]: 87.2%
- viability, T/C [16]: 106%
- viability, T/C [17]: 100%
- viability, T/C [18]: 94.9%
- viability, T/C [19]: 117%
- viability, T/C [20]: 95.5%
- viability, T/C [21]: 111%
- viability, T/C [22]: 118%
- viability, T/C [23]: 101%
- viability, T/C [24]: 78.2%
- viability, T/C [25]: 94.4%
- viability, T/C [26]: 91.6%
- viability, T/C [27]: 99.3%
- viability, T/C [28]: 97.3%
- viability, T/C [29]: 107%
- viability, T/C [30]: 88.1%
- viability, T/C [31]: 88.3%
- viability, T/C [32]: 103%
- viability, T/C [33]: 95.3%
- viability, T/C [34]: 85.4%
- viability, T/C [35]: 94%
- viability, T/C [36]: 76.1%

From PubChem BioAssay AID1963981 (Molecular Pharmacology Branch, DTP, NCI, 2024)
